Key:
Format in all cases: in vivo
[1] = tested on: black bean aphids (Aphis fabae); assay: Black bean aphid dip test on broad bean (plants and aphids dipped in the preparation); details: 300 ppm (content of active compound), Vicia faba plants and aphids dipped 5 seconds, after 3 and 6 days storage, read-out: mortality among the aphids
Experimental: Germinated broad bean seeds (Vicia faba) with radicles were transferred into brown glass bottles filled with tap water and subsequently populated with approximately 100 black bean aphids (Aphis fabae). Plants and aphids were then dipped for 5 seconds into an aqueous solution of the formulated preparation to be examined. After the solution had dripped off, plants and animals were kept in a climatized chamber (16 hours of light/day, 25° C., 40-60% relative atmospheric humidity). After 3 and 6 days storage, the effect of the preparation on the aphids was determined. At a concentration of 300 ppm (based on the content of active compound), the preparations of Example Nos. 1/37, 1/78, 1/136, 1/94, 1/174, 1/14, 1/125, 1/187, 1/17, 1/84, 1/52, 1/82, 1/70, 3/74, 1/54, 1/81, 1/42, 3/161, 1/186 effected a mortality of 90-100% among the aphids. (The active compounds are numbered with the Table/No. in the table).

[2] = tested on: black bean aphids (Aphis fabae); assay: Root-systemic activity against black bean aphids on broad bean; details: 30 ppm (content of active compound), 4 ml solution pipetted into the bottle with Vicia faba, after 3 and 6 days storage, read-out: mortality among the aphids by root-systemic action
Experimental: Germinated broad bean seeds (Vicia faba) with radicles were transferred into brown glass bottles filled with tap water. Four milliliters of an aqueous solution of the formulated preparation to be examined were pipetted into the brown glass bottle. The broad bean was subsequently heavily populated with approximately 100 black bean aphids (Aphis fabae). Plants and animals were then stored in a climatized chamber (16 hours of light/day, 25° C., 40-60% relative atmospheric humidity). After 3 and 6 days storage, the root-systemic activity of the preparation on the aphids was determined. At a concentration of 30 ppm (based on the content of active compound), the preparations of Example Nos. 1/53, 1/26, 1/37, 1/78, 1/136, 1/56, 1/94, 1/174, 1/14, 1/187, 1/84, 1/52, 1/82, 1/70, 1/32, 3/74, 1/54, 1/81, 1/42, 3/227, 3/161 effected a mortality of 90-100% among the aphids by root-systemic action.

[3] = tested on: larvae (L3 stage) of the rice leafhopper species Nilaparvata lugens; assay: Rice leafhopper test on dipped rice plants; details: 144 h, 300 ppm (content of active compound), rice leaves dipped 5 seconds, after 6 days storage, read-out: mortality among the leafhopper larvae
Experimental: The leaves of 12 rice plants having a stem length of 8 cm were dipped for 5 seconds into an aqueous solution of the formulated preparation to be examined. After the solution had dripped off, the rice plants treated in this manner were placed in a Petri dish and populated with approximately 20 larvae (L3 stage) of the rice leafhopper species Nilaparvata lugens. The Petri dish was closed and stored in a climatized chamber (16 hours of light/day, 25° C., 40-60% relative atmospheric humidity). After 6 days storage, the mortality among the leafhopper larvae was determined. At a concentration of 300 ppm (based on the content of active compound), the preparations of Example Nos. 1/53, 1/26, 1/164, 1/174, 1/82, 1/42 effected a mortality of 90-100%.

In the case of `CCCSCc1cnc(-c2cnccc2C(F)(F)F)o1` [1/136, 5-n-Propylthiomethyl-2-(4-trifluoromethyl-3-pyridyl)-oxazole], the mortality at 300 ppm [1] is reported as 90 to 100% and the mortality at 30 ppm [2] is reported as 90 to 100%.

Work on `O=Cc1cnc(-c2cnccc2C(F)(F)F)o1` [1/164, 5-formyl-2-(4-trifluoromethyl-3-pyridyl)-oxazole] yielded a mortality at 300 ppm [3] of 90 to 100%.

— US6555501B1, “4-trifluoromethyl-3-oxazolylpyridines, processes for their preparation, compositions comprising them and their use as pesticides” (Hoechst Schering AgrEvo GmbH, priority 1998, dated 2003)
